Reference: patent publication US20050203191A1, “1-Aminocyclohexane derivatives for the treatment of agitation and other behavioral disorders, especially those associated with alzheimer's disease” (priority 2004, published 2005)

What was measured:
[1] = system: patients with mild to moderate dementia of the Alzheimer's type; assay: MD-10: randomized, double-blind, placebo-controlled evaluation of memantine; assay type: in vivo, human; conditions: MD-10, week 24, ITT LOCF
Experimental: MD-10: MD-10 was a randomized, double-blind, placebo-controlled evaluation of the safety and efficacy of memantine in patients with mild to moderate dementia of the Alzheimer's type. The primary endpoints for MD-10 were ADAS-cog and CIBIC-plus. Other endpoints for MD-10 included ADCS-ADL, NPI, and RUD (Resource Utilization in Dementia).
(§1) The five memantine trials were evaluated using an analysis of patient for a population having an NPI agitation subscale score of >4 ([…]) and for a population having an NPI score of <4 ([…]). For each NPI population, changes in SIB, ADAS-cog and/or ADL were calculated using the least square (LS) mean difference for memantine and placebo-treated patients. Similarly, for each NPI population, the raw mean difference between memantine and placebo was calculated for the CIBIC-plus results.
(§2) For primary efficacy measurements the comparison between memantine and placebo was performed using two-way analysis of covariance (ANCOVA) with treatment group and center as the two factors, and the baseline scores as covariate. Both the LOCF imputation approach and the OC approach are performed at the end of the trials.
(§3) For secondary efficacy measurements, the comparison between memantine and placebo was performed using two-way analysis of covariance (ANCOVA) with treatment group and center as the two main effects, and the baseline scores as covariate. Descriptive statistics were calculated by Visit. Again, all analyses were performed using both the LOCF imputation approach and the OC approach.
(§4) Results of ANCOVA were summarized using least square (LS) means for each treatment group with corresponding standard error (SE), the between-treatment (2-24 week) difference in the least square means with corresponding 95% confidence interval, and the between-treatment p-value corresponds to the SAS Type III sum of squares.
(§5) In data Tables 5-19, the Overall Memantine versus Placebo columns of studies MD-01, MD-02, MD-10 and MD-12 used an ANCOVA model with baseline total score as covariate, treatment and study center as factors for SIB, ADL or ADAS-cog; CMH test controlling for study center for CIBIC-Plus. For MZ-9605, results are based on arithmetic means and the Wilcoxon-Mann-Whitney test. The Agitation score columns/NPI/antipsychotics columns, except CIBIS-Plus, calculated the p-values and LS mean differences within the subgroups from an ANCOVA model with baseline total score as covariate, subgroup (yes/no), treatment, and treatment by subgroup interactions as factors. For CIBIS-Plus, the p-values and raw mean differences within a subgroup were calculated using the CMH test controlling for study center.
(§6) Patients in the same five trials described above were stratified into two sub-groups in a second analysis, those with an NPI total score in the top quartile (≧75%), or those more severely impaired at baseline, and those with an NPI total score <75%, or less severe impairment at baseline. Similar to as in Example 1, results were evaluated using the change in SIB (cognitive endpoint), and change in ADCS-ADL (functional endpoint), using the LS mean. The change in the CIBIC-plus (global endpoint) was assessed using the raw mean.
(§7) A sub-population of patients from the five trials, MD-01, MD-02, MD-10, MD-12, and MZ-9605, were concurrently taking antipsychotics.

[2] = humans; cited from earlier work
[3] = system: patients with mild to moderate dementia of the Alzheimer's type on stable chronic doses of a cholinesterase inhibitor; assay: MD-12: randomized, double-blind, placebo-controlled evaluation of memantine added to stable cholinesterase inhibitor; assay type: in vivo, human; conditions: MD-12, on cholinesterase inhibitor, week 24, ITT LOCF
Experimental: The primary endpoints for MD-12 were ADAS-cog and CIBIC-plus. Other endpoints for MD-12 included ADCS-ADL23, NPI, MMSE and RUD (Resource Utilization in Dementia).
as §1, §2, §3, §4, §5, §6, §7

[4] = NPI total score ≧=75% (top quartile)
[5] = antipsychotics usage “YES” (N = n)
[6] = antipsychotics usage “YES” (N = y)
[7] = baseline NPI agitation score <4
[8] = baseline NPI agitation score ≧=4
[9] = baseline NPI agitation score ≧=4, listed as MEM

CC12CC3CC(C)(C1)CC(N)(C3)C2 [memantine, 1-amino-3,5-dimethyl adamantane]
ADAS-cog (change) LS Mean Diff., MEM v. PLA ([1]; NPI total score <75%): −1.59 | ADAS-cog (change) mean ([1]; NPI total score <75%): −0.08 | ADCS-ADL (change) LS Mean Diff., MEM v. PLA ([1]; NPI total score <75%): 0.11 | ADCS-ADL (change) mean ([1]; NPI total score <75%): −2.67 | CIBIC-PLUS Raw Mean Diff., MEM v. PLA ([1]; NPI total score <75%): −0.32 | CIBIC-PLUS mean ([1]; NPI total score <75%): 4.16 | ADAS-cog (change) LS Mean Diff., MEM v. PLA [1, 4]: −2.53 | ADAS-cog (change) mean [1, 4]: −1.18 | ADCS-ADL (change) LS Mean Diff., MEM v. PLA [1, 4]: 0.70 | ADCS-ADL (change) mean [1, 4]: −5.04 | CIBIC-PLUS Raw Mean Diff., MEM v. PLA [1, 4]: −0.3 | CIBIC-PLUS mean [1, 4]: 4.33 | ADAS-COG (change) LS Mean Diff., MEM v. PLA (second parameter of Table 19) [1, 5]: 0.31 | ADAS-COG (change) mean (second parameter of Table 19) [1, 5]: −2.69 | ADAS-cog (change) LS Mean Diff., MEM v. PLA [1, 5]: −1.93 | ADAS-cog (change) mean [1, 5]: −0.54 | CIBIC-PLUS Raw Mean Diff., MEM v. PLA [1, 5]: −0.29 | CIBIC-PLUS mean [1, 5]: 4.18 | ADAS-COG (change) LS Mean Diff., MEM v. PLA (second parameter of Table 19) [1, 6]: −0.017 | ADAS-COG (change) mean (second parameter of Table 19) [1, 6]: −7.95 | ADAS-cog (change) LS Mean Diff., MEM v. PLA [1, 6]: −0.74 | ADAS-cog (change) mean [1, 6]: 1.42 | CIBIC-PLUS Raw Mean Diff., MEM v. PLA [1, 6]: −0.51 | CIBIC-PLUS mean [1, 6]: 4.40 | ADAS-cog (change) LS Mean Diff., MEM v. PLA [1, 7]: −1.87 | ADAS-cog (change) mean [1, 7]: −0.49 | ADCS-ADL (change) LS Mean Diff., MEM v. PLA [1, 7]: 0.65 | ADCS-ADL (change) mean [1, 7]: −3 | CIBIC-PLUS Raw Mean Diff., MEM v. PLA [1, 7]: −0.36 | CIBIC-PLUS mean [1, 7]: 4.18 | ADAS-cog (change) LS Mean Diff., MEM v. PLA [1, 8]: −1.39 | ADAS-cog (change) mean [1, 8]: 0.86 | ADCS-ADL (change) LS Mean Diff., MEM v. PLA [1, 8]: −2.66 | ADCS-ADL (change) mean [1, 8]: −5.05 | CIBIC-PLUS Raw Mean Diff., MEM v. PLA [1, 8]: no difference | CIBIC-PLUS mean [1, 8]: 4.36 | CIBIC-PLUS Raw Mean Diff., MEM v. PLA [1, 9]: 0.0 | ADAS-cog (change) LS Mean Diff., MEM v. PLA ([1]; overall): −1.90 | ADAS-cog (change) LS mean ([1]; overall): −0.80 | ADCS-ADL (change) LS Mean Diff., MEM v. PLA ([1]; overall): 0.10 | ADCS-ADL (change) LS mean ([1]; overall): −2.90 | CIBIC-PLUS LS mean ([1]; overall): 4.20 | CIBIC-PLUS Raw Mean Diff., MEM v. PLA ([1]; overall): −0.30 | therapeutically effective circulating concentration [2]: 1 µM | ADAS-COG (change) LS Mean Diff., MEM v. PLA (second parameter of Table 18) [3]: −0.24 | ADAS-cog (change) LS Mean Diff., MEM v. PLA ([3]; NPI total score <75%): −0.39 | ADAS-cog (change) mean ([3]; NPI total score <75%): 0.53 | ADCS-ADL (change) LS Mean Diff., MEM v. PLA ([3]; NPI total score <75%): −0.76 | ADCS-ADL (change) mean ([3]; NPI total score <75%): −3.0 | CIBIC-PLUS Raw Mean Diff., MEM v. PLA ([3]; NPI total score <75%): −0.041 | CIBIC-PLUS mean ([3]; NPI total score <75%): 4.3 | CIBIC-PLUS Raw Mean Diff., MEM v. PLA ([3]; NPI total score <75%, listed as MEM): −0.1 | ADAS-cog (change) LS Mean Diff., MEM v. PLA [3, 4]: −1.53 | ADAS-cog (change) mean [3, 4]: 0.05 | ADCS-ADL (change) LS Mean Diff., MEM v. PLA [3, 4]: 2.0 | ADCS-ADL (change) mean [3, 4]: −2.8 | CIBIC-PLUS Raw Mean Diff., MEM v. PLA [3, 4]: 0.0 | CIBIC-PLUS mean [3, 4]: 4.6 | ADCS-ADL (change) LS Mean Diff., MEM v. PLA ([3]; NPI total score ≧=75% (top quartile), listed as MEM): 2.00 | ADAS-COG (change) mean (second parameter of Table 18) [3, 5]: −2.5 | ADAS-cog (change) LS Mean Diff., MEM v. PLA [3, 5]: −0.74 | ADAS-cog (change) mean [3, 5]: 0.1 | CIBIC-PLUS Raw Mean Diff., MEM v. PLA [3, 5]: −0.06 | CIBIC-PLUS mean [3, 5]: 4.33 | ADAS-COG (change) LS Mean Diff., MEM v. PLA (second parameter of Table 18) [3, 6]: .43 | ADAS-COG (change) mean (second parameter of Table 18) [3, 6]: −6.0 | ADAS-cog (change) LS Mean Diff., MEM v. PLA [3, 6]: .4 | ADAS-cog (change) mean [3, 6]: 3.2 | CIBIC-PLUS Raw Mean Diff., MEM v. PLA [3, 6]: 0.1 | CIBIC-PLUS mean [3, 6]: 4.74 | ADAS-cog (change) LS Mean Diff., MEM v. PLA [3, 7]: −0.72 | ADAS-cog (change) mean [3, 7]: 0.35 | ADCS-ADL (change) LS Mean Diff., MEM v. PLA [3, 7]: −0.56 | ADCS-ADL (change) mean [3, 7]: −2.8 | CIBIC-PLUS Raw Mean Diff., MEM v. PLA [3, 7]: −0.1 | CIBIC-PLUS mean [3, 7]: 4.3 | ADAS-cog (change) LS Mean Diff., MEM v. PLA [3, 8]: −0.27 | ADAS-cog (change) mean [3, 8]: 0.98 | ADCS-ADL (change) LS Mean Diff., MEM v. PLA [3, 8]: 3.54 | ADCS-ADL (change) mean [3, 8]: −3.7 | CIBIC-PLUS Raw Mean Diff., MEM v. PLA [3, 8]: no difference | CIBIC-PLUS mean [3, 8]: 4.7 | CIBIC-PLUS Raw Mean Diff., MEM v. PLA [3, 9]: 0.0 | ADAS-cog (change) LS Mean Diff., MEM v. PLA ([3]; overall): −0.70 | ADAS-cog (change) LS mean ([3]; overall): 0.10 | ADCS-ADL (change) LS Mean Diff., MEM v. PLA ([3]; overall): −0.20 | ADCS-ADL (change) LS mean ([3]; overall): −3.00 | CIBIC-PLUS LS mean ([3]; overall): 4.38 | CIBIC-PLUS Raw Mean Diff., MEM v. PLA ([3]; overall): −0.04
